According to publication PMC2706308 (Biochimica et biophysica acta, 2009):
Where a SMILES comes first, the peptide text is derived from it. The star is where a group is joined. Cbz = O=C(OCc1ccccc1)*

Target: 20S proteasome (rat liver) (Rattus norvegicus, UniProt P18421+P28075)
Test: inhibition of suc-LLVY-AMC hydrolysis
Assay type: biochemical
Conditions: read-out: % inhibition at 10 uM

inhibition at 10 µM: 90%
SMILES: CC(C)C[C@@H](C=O)NC(=O)[C@H](CC(C)C)NC(=O)[C@H](CC(C)C)NC(=O)OCc1ccccc1 [MG-132] (Cbz-Leu-Leu-Leu-aldehyde)
